From patent publication US20250313548A1 (Actio Biosciences, Inc., priority 2023, published 2025) come the findings set out here.

As a reminder, the IC50 is the concentration at which inhibition is half-maximal. Low values mean higher potency, high ones lower potency.

human, KCNT1, sequence (Q5JUK3 whole entry): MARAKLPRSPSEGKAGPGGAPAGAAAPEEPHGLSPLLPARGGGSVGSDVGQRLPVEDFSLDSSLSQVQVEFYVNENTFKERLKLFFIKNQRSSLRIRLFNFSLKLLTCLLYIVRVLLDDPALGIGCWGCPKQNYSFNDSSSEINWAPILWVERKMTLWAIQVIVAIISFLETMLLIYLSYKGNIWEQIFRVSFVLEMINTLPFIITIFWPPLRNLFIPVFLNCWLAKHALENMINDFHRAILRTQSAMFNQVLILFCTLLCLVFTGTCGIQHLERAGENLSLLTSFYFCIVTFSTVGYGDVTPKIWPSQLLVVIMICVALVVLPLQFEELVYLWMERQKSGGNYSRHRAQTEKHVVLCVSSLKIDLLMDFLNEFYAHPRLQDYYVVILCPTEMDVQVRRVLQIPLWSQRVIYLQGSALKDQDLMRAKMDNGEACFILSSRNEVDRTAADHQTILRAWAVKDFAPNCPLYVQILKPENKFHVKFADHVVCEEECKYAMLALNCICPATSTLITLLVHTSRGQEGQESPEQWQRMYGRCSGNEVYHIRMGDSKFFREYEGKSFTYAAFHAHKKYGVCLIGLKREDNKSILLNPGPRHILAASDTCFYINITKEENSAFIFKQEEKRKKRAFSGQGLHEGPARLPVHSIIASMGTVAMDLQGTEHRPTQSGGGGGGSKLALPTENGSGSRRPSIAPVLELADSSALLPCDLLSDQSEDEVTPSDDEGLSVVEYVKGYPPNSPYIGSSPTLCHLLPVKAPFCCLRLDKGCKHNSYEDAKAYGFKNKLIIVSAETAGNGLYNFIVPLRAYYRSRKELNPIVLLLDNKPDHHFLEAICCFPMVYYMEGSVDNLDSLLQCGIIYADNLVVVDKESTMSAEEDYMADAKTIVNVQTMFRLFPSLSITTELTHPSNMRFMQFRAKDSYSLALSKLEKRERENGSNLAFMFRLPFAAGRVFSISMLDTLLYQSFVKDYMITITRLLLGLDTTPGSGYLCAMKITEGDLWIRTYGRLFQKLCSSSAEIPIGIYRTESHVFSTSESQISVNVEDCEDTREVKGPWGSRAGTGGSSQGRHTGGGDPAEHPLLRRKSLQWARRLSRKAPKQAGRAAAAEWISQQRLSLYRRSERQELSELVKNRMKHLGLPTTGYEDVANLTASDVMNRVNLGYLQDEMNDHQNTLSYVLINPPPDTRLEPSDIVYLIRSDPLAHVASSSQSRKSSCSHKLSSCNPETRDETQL

This test deals with human, KCNT1 (Homo sapiens (Human), UniProt Q5JUK3). The experiment in a line: FLIPR Tl/K Flux Assay. The format is cell-based. The note with it: HEK293 cells stably expressing human KCNT1; Tl+ flux stimulated with EC80 of agonist Loxapine. A digest of the protocol:
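HEK293 cells stably expressing human KCNT1 were loaded with FLIPR potassium dye in HEPES/HBSS pH 7.4 with 5 mM probenecid, 1 h at 25 °C, then given test compound for 30 min at 25 °C. Tl+ flux was triggered with chloride-free buffer containing Tl+ and EC80 loxapine and read 160 s. IC50 came from Hill fits of % inhibition.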
`Cc1cnc(C(F)(F)F)cc1-c1cc2n(n1)CC[C@@H]2NC(=O)c1cc(C(F)(F)F)nn1C` [Compound I-236a, (S)-1-Methyl-N-(2-(5-methyl-2-(trifluoromethyl)pyridin-4-yl)-5,6-dihydro-4H-pyrrolo[1,2-b]pyrazol-4-yl)-3-(trifluoromethyl)-1H-pyrazole-5-carboxamide] had an IC50 of less than 250 nM.

Regarding `COc1cc(C(=O)N[C@H]2CCCn3nc(-c4ccnc(C(F)(F)F)c4)cc32)cc(OC)n1` [Compound I-124a, (S)-2,6-Dimethoxy-N-(2-(2-(trifluoromethyl)pyridin-4-yl)-4,5,6,7-tetrahydropyrazolo[1,5-a]pyridin-4-yl)isonicotinamide], the IC50 was less than 250 nM.

Compound `O=C(N[C@H]1CCCn2nc(-c3ccnc(C(F)(F)F)c3)cc21)c1cn(C(F)(F)F)nc1C(F)F` [Compound I-497a, (S)-3-(Difluoromethyl)-1-(trifluoromethyl)-N-(2-(2-(trifluoromethyl)pyridin-4-yl)-4,5,6,7-tetrahydropyrazolo[1,5-a]pyridin-4-yl)-1H-pyrazole-4-carboxamide] yielded an IC50 of less than 250 nM.

Regarding `Cn1nc(C(F)(F)F)cc1C(=O)N[C@H]1CCCc2cn(-c3ccnc(C(F)(F)F)c3)nc21` [Compound I-87a], the IC50 lay in the range of 500 to 1000 nM.

The compound `Cn1nc(C(F)(F)F)nc1C(=O)N[C@H]1CCCc2oc(-c3cc(C4CC4)ncc3F)nc21` [Compound I-191a, (S)—N-(2-(2-Cyclopropyl-5-fluoropyridin-4-yl)-4,5,6,7-tetrahydrobenzo[d]oxazol-4-yl)-1-methyl-3-(trifluoromethyl)-1H-1,2,4-triazole-5-carboxamide] came in with an IC50 of less than 250 nM.

`O=C(N[C@H]1CCCc2cnc(-c3ccnc(C(F)(F)F)c3)cc21)c1cc(F)cc(F)c1` [Compound I-461a] yielded an IC50 of less than 250 nM.

Take `Cn1nc(C(F)(F)F)cc1C(=O)N[C@H]1CCCn2nc(-c3ccnc(C(F)(F)F)c3)nc21` [Compound I-86a, (S)-1-Methyl-3-(trifluoromethyl)-N-(2-(2-(trifluoromethyl)pyridin-4-yl)-5,6,7,8-tetrahydro-[1,2,4]triazolo[1,5-a]pyridin-8-yl)-1H-pyrazole-5-carboxamide]: the IC50 is less than 250 nM.

The compound `CCOc1cc(-n2cc3c(n2)CCCC3NC(=O)c2ccc3ccccc3c2)ccn1` (racemic) [Compound I-30, (rac)-N-(2-(2-Ethoxypyridin-4-yl)-4,5,6,7-tetrahydro-2H-indazol-4-yl)-2-naphthamide] gave an IC50 of 500 to 1000 nM.

`Cn1nc(C(F)(F)F)cc1C(=O)N[C@H]1CCCn2nc(-c3ccnc(C4CC4)c3)cc21` [Compound I-64a]: the IC50 is less than 250 nM.

For `O=C(NC1CCCc2nn(-c3ccnc(C(F)(F)F)c3)cc21)c1ccnc(C(F)(F)F)c1` (racemic) [Compound I-20, (rac)-2-(Trifluoromethyl)-N-(2-(2-(trifluoromethyl)pyridin-4-yl)-4,5,6,7-tetrahydro-2H-indazol-4-yl)isonicotinamide], the IC50 is less than 250 nM.

`Cc1ccc(C(=O)N[C@H]2CCc3nn(-c4ccnc(C(F)(F)F)c4)cc32)c(C)c1` [Compound I-93a] had an IC50 of less than 250 nM.

`N#Cc1cc(F)cc(C(=O)N[C@H]2CCCc3oc(-c4ccnc(C(F)(F)F)c4)nc32)c1` [Compound I-298a, (S)-3-Cyano-5-fluoro-N-(2-(2-(trifluoromethyl)pyridin-4-yl)-4,5,6,7-tetrahydrobenzo[d]oxazol-4-yl)benzamide]: the IC50 was less than 250 nM.

With `Cn1nc(C(F)(F)F)cc1C(=O)NC1Cc2cc(-c3ccnc(C(F)(F)F)c3)nn2C1` (centres unmarked) [Compound I-469], the IC50 was less than 250 nM.

In the case of `Cn1nc(C(=O)N[C@H]2CCCc3nn(-c4ccnc(C(F)(F)F)c4)cc32)cc1C(C)(F)F` [Compound I-49a], the 50% inhibitory concentration (IC50) was more than 1000 nM.

Turning to `O=C(N[C@H]1CCc2cnc(-c3ccnc(C(F)(F)F)c3)cc21)c1cc2cccnn2c1` [Compound I-340a], the IC50 was more than 1000 nM.

Take `COc1cc(-c2nc3c(o2)[C@@H](NC(=O)c2cccc(OC(F)(F)F)c2)CCC3)ccn1` [Compound I-151a, (S)-N-(2-(2-Methoxypyridin-4-yl)-4,5,6,7-tetrahydrobenzo[d]oxazol-7-yl)-3-(trifluoromethoxy)benzamide]: the IC50 is less than 250 nM.

Take `CCc1cc(-n2cc3c(n2)CC[C@H]3NC(=O)c2cc(C(F)(F)F)nn2C)ccn1` [Compound I-69b]: the IC50 is more than 1000 nM.

For `Cc1nc(C(F)(F)F)oc1C(=O)N[C@H]1CCCc2cnc(-c3ccnc(C(F)(F)F)c3)cc21` (single isomer, unassigned) [I-271*], the IC50 fell in the range of 500 to 1000 nM.

In turn, `COc1cc(-c2nc3c(o2)[C@@H](NC(=O)c2cncc(C(F)(F)F)n2)CCC3)ccn1` [Compound I-143a, (S)-N-(2-(2-Methoxypyridin-4-yl)-4,5,6,7-tetrahydrobenzo[d]oxazol-7-yl)-6-(trifluoromethyl)pyrazine-2-carboxamide] gave an IC50 of more than 1000 nM.

Compound `COc1cc(-c2nc3c(o2)[C@@H](NC(=O)c2cccc(C(F)(F)F)c2)CCC3)c(F)cn1` [Compound I-177a, (S)-N-(2-(5-Fluoro-2-methoxypyridin-4-yl)-4,5,6,7-tetrahydrobenzo[d]oxazol-7-yl)-3-(trifluoromethyl)benzamide] registered a 50% inhibitory concentration (IC50) of less than 250 nM.

As for `Cc1cc(F)cc(C(=O)N[C@@H]2CCc3nn(-c4ccnc(C(F)(F)F)c4)cc32)c1` [Compound I-384b], the IC50 was less than 250 nM.

Compound `O=C(N[C@@H]1CCCn2nc(-c3cc(C(F)(F)F)ncc3F)nc21)c1cncc(C(F)(F)F)n1` [Compound I-502b] returned an IC50 of more than 1000 nM.

Compound `Cn1nc(C(F)(F)F)cc1C(=O)N[C@@H]1CCCc2sc(-c3ccnc(C(F)(F)F)c3)nc21` [Compound I-80b] returned an IC50 of more than 1000 nM.

`CCc1cc(C#N)cc(C(=O)N[C@H]2CCc3nn(-c4ccnc(C(F)(F)F)c4)cc32)c1` [Compound I-246a, (S)-3-Cyano-5-ethyl-N-(2-(2-(trifluoromethyl)pyridin-4-yl)-2,4,5,6-tetrahydrocyclopenta[c]pyrazol-4-yl)benzamide] came in with an IC50 of less than 250 nM.

The compound `CS(=O)(=O)c1ccc(C(=O)N[C@H]2CCc3nn(-c4ccnc(C(F)(F)F)c4)cc32)cc1` [Compound I-96a] showed a 50% inhibitory concentration (IC50) of more than 1000 nM.

In turn, `Cn1cc(C(F)(F)F)nc1C(=O)NC1CCCc2nn(-c3ccnc(C(F)(F)F)c3)cc21` (racemic) [Compound I-24, (rac)-1-Methyl-4-(trifluoromethyl)-N-(2-(2-(trifluoromethyl)pyridin-4-yl)-4,5,6,7-tetrahydro-2H-indazol-4-yl)-1H-imidazole-2-carboxamide] had a half-maximal inhibitory concentration (IC50) of 500 to 1000 nM.

`O=C(N[C@H]1CCCn2nc(-c3ccnc(C(F)(F)F)c3)cc21)c1cc2n(n1)CCCO2` [Compound I-413a] returned an IC50 of more than 1000 nM.

`Cn1nc(C(F)(F)F)cc1C(=O)N[C@H]1CCCn2nc(-c3ccnc(OC(F)F)c3)cc21` [Compound I-378a]: the IC50 was less than 250 nM.

`O=C(N[C@H]1CCn2nc(-c3cc(C(F)(F)F)ncc3F)cc21)C1CC2(CC2)C1` [Compound I-522a, (S)—N-(2-(5-Fluoro-2-(trifluoromethyl)pyridin-4-yl)-5,6-dihydro-4H-pyrrolo[1,2-b]pyrazol-4-yl)spiro[2.3]hexane-5-carboxamide] had a 50% inhibitory concentration (IC50) of less than 250 nM.

Compound `Cc1cc(C#N)cc(C(=O)N[C@H]2CCCn3nc(-c4ccnc(C(F)(F)F)c4)cc32)c1` [Compound I-418a] yielded an IC50 of less than 250 nM.

For `Cn1nc(C(F)(F)F)cc1C(=O)N[C@H]1CCCc2nn(-c3ccnc(C(F)(F)F)c3)cc21` [Compound I-4a, (S)-1-Methyl-3-(trifluoromethyl)-N-(2-(2-(trifluoromethyl)pyridin-4-yl)-4,5,6,7-tetrahydro-2H-indazol-4-yl)-1H-pyrazole-5-carboxamide], the IC50 was less than 250 nM.

Compound `Cc1ccccc1C(=O)N[C@@H]1CCc2nn(-c3ccnc(C(F)(F)F)c3)cc21` [Compound I-92b] registered an IC50 of more than 1000 nM.

Take `O=C(N[C@H]1CCCn2nc(-c3ccnc(C(F)(F)F)c3)cc21)c1cnn(C(F)(F)F)c1` [Compound I-399a]: the IC50 is less than 250 nM.

The compound `COc1cc(-c2nc3c(o2)CCC[C@H]3NC(=O)c2cncc(C(F)(F)F)n2)c(F)cn1` [Compound I-503b] returned an IC50 of more than 1000 nM.

As to `O=C(N[C@H]1CCCc2nc(-c3cc(C4CC4)ncc3F)oc21)c1cccc(C(F)(F)F)c1` [Compound I-165a, (S)-N-(2-(2-Cyclopropyl-5-fluoropyridin-4-yl)-4,5,6,7-tetrahydrobenzo[d]oxazol-7-yl)-3-(trifluoromethyl)benzamide], the half-inhibitory concentration (IC50) is less than 250 nM.

For `Cc1cc(C(=O)N[C@H]2CCCn3nc(-c4ccnc(C(F)(F)F)c4)cc32)n(-c2ccccc2)n1` [Compound I-448a], the IC50 is less than 250 nM.

In turn, `Cc1cnc(C(F)(F)F)cc1-c1cc2n(n1)CC[C@@H]2NC(=O)c1cccc(C#N)c1` [Compound I-144a, (S)-3-Cyano-N-(2-(5-methyl-2-(trifluoromethyl)pyridin-4-yl)-5,6-dihydro-4H-pyrrolo[1,2-b]pyrazol-4-yl)benzamide] returned an IC50 of less than 250 nM.

In turn, “(S)-6-(Trifluoromethyl)-N-(2-(2-(trifluoromethyl)pyridin-4-yl)-5,6-dihydro-4H-pyrrolo[1,2-b]pyrazol-4-yl)pyrazine-2-carboxamide [Compound I-572a]” returned an IC50 of less than 250 nM.

Take `N#Cc1cccc(C(=O)NC2CCCCC3NC(c4ccnc(C(F)(F)F)c4)=NC23)c1` (centres unmarked) [Compound I-463]: the concentration for half-maximal inhibition (IC50) was more than 1000 nM.

For the compound `N#Cc1cc(F)cc(C(=O)N[C@@H]2CCCCn3nc(-c4ccnc(C5CC5)c4)cc32)c1` [Compound I-470b], the IC50 is less than 250 nM.

In turn, `O=C(N[C@H]1CCn2nc(-c3cc(C(F)(F)F)ncc3F)cc21)c1ccnc(OC(F)(F)F)c1` [Compound I-536a, (S)-N-(2-(5-Fluoro-2-(trifluoromethyl)pyridin-4-yl)-5,6-dihydro-4H-pyrrolo[1,2-b]pyrazol-4-yl)-2-(trifluoromethoxy)isonicotinamide] registered an IC50 of less than 250 nM.
